Measurements published in patent publication US5710150A, “Benzazepine derivative, pharmaceutical composition thereof, and intermediate thereof” (Yamanouchi Pharmaceutical Co., Ltd., priority 1993, dated 1998).

Columns and labels:
[1] = Water diuresis action in conscious rats (oral administration); format: in vivo, male Wister rats; details: 3 mg/kg oral
Procedure: Each compound to be tested was suspended in 0.5% methylcellulose solution and orally administered in a dose of 3 mg/kg to male Wister rats (body weight, 270 to 300 g) which have been subjected to fasting with no water for 16 to 20 hours. Using a metabolic cage, urine samples were collected just after the administration of each test sample until 4 hours thereafter to measure the amount of urine.

[2] = target: T1, arginine vasopressin V1 receptor (Rattus norvegicus, UniProt P30560); test: V1 receptor binding assay ([3H]-Arg-vasopressin, rat liver membrane); details: for antagonism on V1 receptor (in words): compared with OPC-31260 and OPC-21268; for Ki: rat liver membrane, [3H]-Arg-vasopressin 2 nM, 30° C., 30 minutes, pH 8.0, read-out: Binding activity on arginine vasopressin V1 receptor (pKi) (converted)
T1 construct: A rat liver membrane sample was prepared; from tissue; host or cells: rat liver membranes
T1 sequence (P30560 whole entry): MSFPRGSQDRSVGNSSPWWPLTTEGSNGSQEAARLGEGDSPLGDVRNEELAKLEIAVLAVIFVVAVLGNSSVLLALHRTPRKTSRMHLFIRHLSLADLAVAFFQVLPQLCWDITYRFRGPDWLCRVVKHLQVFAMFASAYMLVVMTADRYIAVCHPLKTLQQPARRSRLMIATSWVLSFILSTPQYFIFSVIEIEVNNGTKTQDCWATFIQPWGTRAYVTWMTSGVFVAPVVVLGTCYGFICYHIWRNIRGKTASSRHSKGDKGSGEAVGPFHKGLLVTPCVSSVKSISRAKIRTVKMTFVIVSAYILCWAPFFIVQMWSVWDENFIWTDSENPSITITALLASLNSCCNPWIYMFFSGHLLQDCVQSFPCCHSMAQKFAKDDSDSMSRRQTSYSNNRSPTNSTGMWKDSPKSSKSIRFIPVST
Procedure: (1) V1 receptor binding assay
A rat liver membrane sample was prepared in accordance with the method of Nakamura et al. (J. Biol. Chem., 258, 9283 (1983)), and [^3 H]-Arg-vasopressin (2 nM, specific activity=75.8 Ci/mmol), 70 μg of the membrane sample and each drug to be tested (10^-8 to 10^-4 M) were incubated at 30° C. for 30 minutes in 250 μl of 100 mM Tris-HCl buffer (pH=8.0) containing 5 mM of magnesium chloride, 1 mM of ethylenediaminetetraacetic acid (EDTA) and 0.1% of bovine serum albumin (BSA). Thereafter, the incubation solution was sucked off using a cell harvester and free ligand and excess buffer were removed by passing the reaction mixture through a glass filter (GF/B), thereby trapping receptor-bound labeled ligand on the glass filter. The glass filter was taken out, thoroughly dried and then mixed with a liquid scintillation cocktail, and the amount of the membrane-bound [^3 H]-vasopressin was measured using a liquid scintillation counter to calculate the inhibition ratio by the following formula. [formula] C1 : amount of [^3 H]-vasopressin bound to the membrane in the coexistence of known amount of each drug to be tested and [^3 H]-vasopressin
C0 : amount of [^3 H]-vasopressin bound to the membrane when the drug to be tested was not added
B1 : amount of [^3 H]-vasopressin bound to the membrane in the presence of excess vasopressin (10^-6 M)
[formula] [L]: concentration of radioactive ligand KD: dissociation constant calculated from Scatchard plot
Negative logarithm of the thus calculated Ki value was used as pKi value.

[3] = target: arginine vasopressin V2 receptor (Oryctolagus cuniculus, UniProt G1TA00); test: V2 receptor binding assay ([3H]-Arg-vasopressin, rabbit renal medulla membrane); details: for antagonism on V2 receptor (in words): compared with OPC-31260 and OPC-21268; for Binding activity on arginine vasopressin V2 receptor (pKi): rabbit renal medulla membrane, [3H]-Arg-vasopressin 2 nM
Chain of arginine vasopressin V2 receptor (G1TA00 78-446): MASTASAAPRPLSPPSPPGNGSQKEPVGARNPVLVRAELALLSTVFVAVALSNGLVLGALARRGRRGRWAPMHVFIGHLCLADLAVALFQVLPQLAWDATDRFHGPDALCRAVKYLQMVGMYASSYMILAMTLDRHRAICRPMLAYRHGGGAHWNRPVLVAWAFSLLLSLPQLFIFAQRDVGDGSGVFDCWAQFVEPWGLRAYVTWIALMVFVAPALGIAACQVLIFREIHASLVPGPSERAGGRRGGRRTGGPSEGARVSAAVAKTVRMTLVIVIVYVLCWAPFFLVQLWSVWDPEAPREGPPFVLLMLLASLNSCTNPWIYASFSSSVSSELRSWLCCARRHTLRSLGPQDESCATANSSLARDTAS

V1 = V1 antagonism in conscious rats (oral administration), AVP-induced diastolic blood pressure increase; format: in vivo, male Wister rats; details: 1 mg/kg oral, 30 minutes to 6 hours after administration, AVP 30 mU/kg i.v.

Structure (SMILES) | amount of urine compared with solvent-administered group, 2 to 4 hours (in words) ([1]; 2 hours to 4 hours after administration) | amount of urine relative to solvent-administered group, 0 to 2 hours ([1]; just after administration to 2 hours later) | antagonism on V1 receptor (in words) [2] | Ki [2] | antagonism on V2 receptor (in words) [3] | Binding activity on arginine vasopressin V2 receptor (pKi) [3] | Pressure increment by AVP (before compound = 100%) (V1)
Cc1ccccc1C(=O)Nc1ccc(C(=O)N2CCCC(N(C)C)c3ccccc32)cc1 (stereo not drawn) [Comparative compound (1), OPC-31260] | almost the same as that in the solvent-administered group | 11 times |  |  |  |  | 
CN(C)C1CCN(C(=O)/C=C2/c3ccccc3N(C(=O)c3ccc(NC(=O)c4ccccc4-c4ccccc4)cc3)CCC2(F)F)CC1.Cl [Example 13, (Z)-4'-[[4,4-difluoro-5-[[(4-dimethylaminopiperidino)carbonyl]methylene]-2,3,4,5-tetrahydro-1H-1-benzazepin-1-yl]carbonyl]-2-phenylbenzanilide hydrochloride] |  |  | excellent antagonisms on both V1 and V2 receptors | 79.4 pM | excellent antagonisms on both V1 and V2 receptors | 9.58 | ≤ 50%
CN1CCCN(C(=O)/C=C2/c3ccccc3N(C(=O)c3ccc(NC(=O)c4ccccc4-c4ccccc4)cc3)CCC2(F)F)CC1.Cl [Example 24, (Z)-4'-[[4,4-difluoro-5-[[(4-methylhexahydro-1,4-diazepin-1-yl)carbonyl]methylene]-2,3,4,5-tetrahydro-1H-1-benzazepin-1-yl]carbonyl]-2-phenylbenzanilide hydrochloride] |  |  | excellent antagonisms on both V1 and V2 receptors | 31.6 pM | excellent antagonisms on both V1 and V2 receptors | 9.26 | ≤ 50%
